Data from patent EP1530462B1, “1-PHENYL-2-DIMETHYLAMINOMETHYL CYCLOHEXANE COMPOUNDS USED FOR THE THERAPY OF DEPRESSIVE SYMPTOMS, PAIN, AND INCONTINENCE” (priority 2002, dated 2004).

Tested on: Maus
Assay: Tail Suspension Test in the mouse
Type: in vivo
Source text: Der "Tail Suspension Test" detektiert antidepressive und anxiolytische Aktivität und folgt der Methode von Porsolt et al. (Porsolt R.D., Bertin A., Jalfre M., Behaviourial despair in mice: a primary screening test for antidepressants. Arch. Int. Pharmacodyn. Ther., 229, 327-336, 1977) und Stéru et al. (Stéru L., .Chermat R., Thierry B, Simon P. The Tail Suspension Test: a new method for screening antidepressants in mice. Psychopharmacology, 85, 367-370, 1985). Nagetiere, die man am Schwanz herabhängen läßt, werden schnell immobil. Antidepressiva verringern die Dauer der Immobilität, während Tranquilantien die Dauer der Immobilität verlängern. Das Verhalten der Tiere wurde über 6 Minuten beobachtet, vorzugsweise mit einem computerisierten Gerät (Itemac-TST) entwickelt von Stéru et al. (1985) (s.o.). Mehrere Mäuse wurden parallel untersucht und die Immobilitätsdauer bestimmt. Dieser Parameter ist analog zu dem im "behavioral despair"-Test (Stéru L., Chermat R., Thierry B., Mico J.A., Lenègre A., Stéru M., Simon P. Porsolt R.D., The automated Tail Suspension Test: a computerized device which differentiates psychotropic drugs. Prog. Neuropsychopharmacol. Exp. Psychiatry, 11, 659-671, 1987) verwendeten. 10-20 Mäuse wurden pro Gruppe untersucht. […]. In diesem Verhaltensmodell führen Antidepressiva wie auch in anderen Verhaltensmodellen zu einer Verkürzung der Immobilitätsphase, während Opioide wie Morphin die Immobilitätsphase verlängern. Beim Vorhandensein beider Wirkkomponenten überlagern sich beide Effekte, so daß nur noch eine geringe Motilitätsveränderung resultiert. Das wurde dadurch aufgehoben, daß die Opiatkomponente durch Vorbehandlung mit Naloxon weggeblockt wurde. Nach der Naloxonvorbehandlung trat die stimulierende Wirkung von (1R,2R)-3-(2-Dimethylaminomethyl-cyclohexyl)-phenol, die ohne Vorbehandlung nur gering war, deutlich in Erscheinung. Darum ist die Substanz, insbesondere in Kombination mit einer Schmerztherapie sehr geeignet. Die Ergebnisse dieser Untersuchungen zusammen mit Referenzsubstanzen sind in der Tabelle 2 zusammengefaßt. Tabelle 2: Wirkung von (1R,2R)-3-(2-Dimethylaminomethyl-cyclohexyl)-phenol, Imipramin und Morphin in "Tail Suspension" Test an der Maus (10 - 20 Tiere/Gruppe)

[1] = 31,6 mg/kg i.p., 30 min before test

| SMILES | Imobilitätsdauer % Änderung gegenüber der Lösungsmittelkontrolle (4,64 mg/kg i.p., 30 min before test) | Imobilitätsdauer % Änderung gegenüber der Lösungsmittelkontrolle (10,0 mg/kg i.p., 30 min before test) | Imobilitätsdauer % Änderung gegenüber der Lösungsmittelkontrolle (21,5 mg/kg i.p. + 1,0 mg/kg i.v. Naloxon (pretreatment)) [%] | Imobilitätsdauer % Änderung gegenüber der Lösungsmittelkontrolle (21,5 mg/kg i.p., 30 min before test) | Imobilitätsdauer % Änderung gegenüber der Lösungsmittelkontrolle (31,6 mg/kg i.p. + 1,0 mg/kg i.v. Naloxon (pretreatment)) [%] | Imobilitätsdauer % Änderung gegenüber der Lösungsmittelkontrolle [1] [%] | Imobilitätsdauer % Änderung gegenüber der Lösungsmittelkontrolle (1,0 mg/kg i.v. alone) [%] |
| --- | --- | --- | --- | --- | --- | --- | --- |
| CN(C)C[C@@H]1CCCC[C@H]1c1cccc(O)c1 [(1R,2R)-3-(2-Dimethylaminomethyl-cyclohexyl)-phenol] | +6% | +12% | -90 | +9% | -85 | -13 | – |
| CN(C)CCCN1c2ccccc2CCc2ccccc21 [Imipramin, reference compound] | – | – | – | – | – | -61 | – |
| C=CCN1CC[C@]23c4c5ccc(O)c4O[C@H]2C(=O)CC[C@@]3(O)[C@H]1C5 [Naloxon, reference compound] | – | – | – | – | – | – | -15 |
